From patent US20190029987A1, “DIMETHYL FUMARATE (DMF) FOR PREVENTION OR TREATMENT OF GOUT, ACNE, DIABETES, VITILIGO AND/OR PYODERMA GANGRENOSUM” (UNIVERSITAT ZURICH, priority 2016, published 2019)
Counter-ions that a name gives are not always drawn.

What was measured:
Nrf2 [1] = assay: Nrf2 stabilisation and nuclear accumulation in human primary keratinocytes (Western blot); assay type: cell-based; settings: HPKs, FIG. 6E,F; for expression of the other Nrf2 complex proteins Keap1, Cul3, and Rbx1: 1 h; for stabilisation and nuclear accumulation of Nrf2 protein: harvested after 1 h
Experimental: (§1) Human primary keratinocytes (HPKs) constitutively express pro-IL-1β and inflammasome proteins.
(§2) FIG. 6: Bone marrow (BM) cells were isolated from Nrf2-deficient mice and wt litterfnates and differentiated into dendritic cells (DCs). (A, B) After priming with upLPS overnight, BMDCs were treated with the NLRP3 inflammasome activators nigericin (20 μM), zymosan (20 μg/ml), MSU (150 μg/ml), ATP (5 mM) or transfected with poly(dA:dT) (1 μg/ml) for activation of the AIM2 inflammasome. After 6 h, supernatants were analysed for secretion of IL-1β by (A) ELISA or (B) Western blot. Mock-treated but primed BMDCs were analysed for expression of inflammasome proteins and pro-IL-1β at the (C) mRNA level by qRT-PCR or at the (D) protein level by Western blot. (B, D) Duplicates from two individual mice per genotype are shown (biological replicates). (E-G) HPKs were treated with the Nrf2 activators SFN (10 μM), tBHQ (10 μM), DMF (50 μM) and 15d-PGJ2 (10 μM). After 1 h, the cells were harvested and analysed for expression of the indicated proteins using total cell lysates (E) or cytoplasmic and nuclear lysates (F). Western blots for the nuclear protein lamin NC and the cytoplasmic protein α-tubulin served as controls. Specific bands are marked with an asterisk. (G) Total RNA was isolated after 8 h and qRT-PCR was performed for quantification of expression of the Nrf2 target genes glutamate-cysteine ligase, catalytic subunit (GCLC), glutamate-cysteine ligase, modifier subunit (GCLM), and NAD(P)H dehydrogenase, quinone 1 (N001). (A-G) Representative experiments performed at least three times are shown. […] Mann-Whitney test was performed. […] Mann-Whitney test was performed. *P≤0.05

[2] = test system: Nrf2 target genes (GCLC, GCLM, NAD(P)H dehydrogenase, quinone 1); assay: Nrf2 target gene expression in HPKs (qRT-PCR); assay type: cell-based, human; settings: RNA after 8 h, FIG. 6G
Experimental: as §1
qRT-PCR was performed with the LightCycler 480 SYBR Green Master or the FastStart Universal SYBR Green Master (both Roche, Rotkreuz, Switzerland) using total cellular RNA. Specific primer pairs (Supplementary Table 2) were designed to generate an approximately 150 bp fragment flanking an intron-exon border of the corresponding gene. The LightCycler 480 96-well version (ROCHE, Rotkreuz, Switzerland) or the ViiA 7 Real-Time FOR System (Life Technologies, Carlsbad, US-CA) was used for reaction and detection according the instructions of the manufacturer.
as §2

NLRP3 inflammasome [3] = assay: UVB irradiation-induced inflammasome activation in HPKs (IL-1β ELISA, Western blot); assay type: cell-based, human; settings: FIG. 2A, 8A-C; for inflammasome activation (processed caspase-1, mature IL-1β and -18 in the supernatant): different doses, UVB 30 min later, harvested after 5 h
Text: (§3) To determine the effects of Nrf2 activating compounds on inflammasome activation, the inventors treated keratinocytes with different doses of SFN, tBHQ, DMF or 15d-PGJ2 and irradiated the cells with UVB.
(§4) SFN, DMF, 15d-PGJ2, tBHQ, zymosan, ATP, poly(dA:dT), cycloheximide, puromycin, and doxycycline were purchased from Sigma (Munich, Germany), nigericin from Enzo Life Sciences (New York, US-NY), MG132 from Calbiochem (Darmstadt, Germany), and blasticidin from Invivogen (Toulouse, France). Release of IL-1p was determined by ELISA according the instructions of the manufacturer (R&D Systems, Minneapolis, US-MN). MSU crystals were prepared by crystallisation of a supersaturated solution of uric acid under mildly basic conditions. Briefly, uric acid was added to a solution of NaOH, the solution was boiled until the uric acid was dissolved and passed through a filter. NaCl was added and crystallisation was performed at 4° C. Crystals were filtered, then dried using a speedvac, weighted and autoclaved.
(§5) (A) HPKs were treated with the indicated concentrations of the Nrf2 activating compound tBHQ irradiated with UVB 30 min later and harvested after 5 h. ELISA measurements were performed for quantification of IL-1β secretion and Western blots for analysis of expression and activation of the indicated proteins. Specific bands are marked with an asterisk. (B) THP-1 cells were differentiated with PMA (27 nM) for 3 d, primed with upLPS (100 ng/ml) overnight, and 1 h before inflammasome activation (5 μM nigericin, 150 μg/ml MSU) treated with SFN (10 μM), 15-PGJ2 (10 μM) or DMF (50 μM) (15-PG: 15-PGJ2). Cells and supernatants were harvested after 5 h and analysed for inflammasome activation by ELISA measurement of IL-1p and Western blots as indicated. (C) Freshly isolated PBMCs from human blood were primed overnight with upLPS (100 ng/ml) and treated with SFN (10 μM), tBHQ (10 μM), DMF (50 μM) or 15-PGJ2 (10 μM) 1 h before inflammasome activation by nigericin (5 μM). ELISA measurement for secretion of IL-1β as readout for inflammasome activation was performed after 5 h. (D) HPKs or (E) differentiated and primed THP-1 cells were pretreated with cycloheximide (CHX, 30 μg/ml) to block protein synthesis for 1 h before SFN (10 μM) was added to the cells and after an additional hour the inflammasome was activated by (D) irradiation with UVB or (E) treatment with nigericin (5 μM). Cells and supernatants were harvested after (D) 6 h or (E) 3.5 h and analysed for inflammasome activation by Western blot as indicated. (A-E) Representative experiments performed at least three times are shown. Statistics: (A-C) Error bars represent the mean±SD of a representative experiment performed in triplicates. One-way ANOVA was performed. **P≤0.01; ***P≤0.001.
FIG. 8: (A-C) HPKs were treated with the Nrf2 activating compounds (A) SFN, (B) DMF, and (C) 15d-PGJ2, irradiated with UVB 30 min later and harvested after 5 h. Analogous experiment as described in FIG. 2A for tBHQ. (D) THP-1 cells were differentiated with TPA for 3 d and primed with LPS overnight. Then, cells were treated with the solvent DMSO, SFN (10 μM) or 15-PGJ2 (10 μM). After 30 min the inflammasome was activated by nigericin treatment and cells and supernatants were harvested after 2.5 h. Western blots showing prolL-1β and mature IL-1p in the lysate and supernatant. 20% lysate and supernatant of a 12 well was used, respectively, in order to allow a comparison. IL-1β was quantified in the supernatant by ELISA and cytotoxicity by LDH release.

NLRP3 inflammasome [4] = target: T1, NLRP3 inflammasome (Homo sapiens, UniProt Q96P20); assay: Nigericin-induced IL-1β secretion in human PBMCs (ELISA); assay type: cell-based; settings: 5 h, FIG. 2C
T1 construct: endogenous in cells
Text: as §3, §4, §5

Nrf2 [5] = assay: UVB-induced Nrf2 degradation in HPKs (Western blot); assay type: cell-based, human; settings: harvested after 1 h, FIG. 7D
Text: Next, the inventors investigated the activity of Nrf2 upon activation of the NLRP3 inflammasome, since inflammasome activation is ROS-dependent. […] This is surprising, since UVB irradiation is a strong inducer of ROS production and it can be anticipated that the cells would benefit from Nrf2 activation. UVB-induced secretion by HPKs requires expression of NLRP1 and NLRP3 [21]. Both nigericin and MSU crystals are considered as “true” NLRP3 activators, but HPKs cannot phagocytose MSU crystals. Therefore, the inventors treated HPKs with nigericin only and THP-1 cells with either of these NLRP3 activators. […] Therefore, NLRP3 inflammasome activation most likely induces Nrf2 protein degradation. […] However, inflammasome activation-induced Nrf2 degradation was blocked upon ablation of ASC or NLRP3 expression (FIG. 4G) and upon treatment of cells with the ROS blocker PDTC or the Ca2+ chelator BAPTA-AM (Supplementary FIG. 2D). […] However, inflammasome function was not impaired, as reflected by normal processing of pro-IL-18 (FIG. 4H). Although Keap1 expression is partially dispensable for Nrf2 degradation by inflammasome activation, the transcription factor is directed to the proteasome under these conditions, since Nrf2 degradation was inhibited by the proteasome inhibitor MG132 (FIG. 4I and FIG. 7D).
(§6) FIG. 7: (A-C) HPKs were transfected with siRNAs for 3 d as indicated. Scrambled (scr) siRNA and siRNA targeting the unrelated vascular endothelial growth factor (VEGF) served as controls. Western blots of (A) total lysates or (B) nuclear and cytoplasmic lysates and (C) qRT-PCR for expression of target gene expression. (D) HPKs were treated with MG132 (1 μM), PDTC (500 μM) or BAPTA-AM (12.5 μM) for 10 min and harvested (before UV) or irradiated with UVB and harvested after 1 h. Western blots showing expression of Nrf2. (E) Differentiated and primed THP-1 cells were pretreated with cycloheximide (CHX, 30 μg/ml) for 1 h before priming cells with upLPS overnight. Western blots show expression of the indicated proteins. […] Statistics: (C) Mann-Whitney test, related to scr control. *P≤0.05

THP-1 cells = assay: Block of protein synthesis in THP-1 cells (Western blot); assay type: cell-based, human; settings: THP-1, 30 μg/ml for 1 h before priming with upLPS overnight, FIG. 7E
Experimental: To determine the effects of Nrf2 activating compounds on inflammasome activation, the inventors treated keratinocytes with different doses of SFN, tBHQ, DMF or 15d-PGJ2 and irradiated the cells with UVB. […] As the Nrf2 activators were added to the cells only 15 to 30 min prior to inflammasome activation, it is unlikely that Nrf2 target genes are involved in inflammasome inhibition.
as §6

NLRP3 inflammasome [6] = target: T1, NLRP3 inflammasome; assay: Inflammasome activation by nigericin/MSU in differentiated, primed THP-1 cells (IL-1β ELISA, Western blot); assay type: cell-based; settings: THP-1, 50 μM 1 h before 5 μM nigericin or 150 μg/ml MSU, 5 h, FIG. 2B
Text: as §3, §4, §5
(A-C) HPKs were irradiated with (A) UVB or treated with (B) nigericin (5 μM) and cells and supernatants were harvested at different time points as indicated. Western blots for expression and activation of the indicated proteins. Specific bands are marked with an asterisk. (C) Expression of Nrf2 and Nrf2 target genes was determined by qRT-PCR. (D, E) THP-1 cells were differentiated with PMA (27 nM) for 3 d, primed with upLPS (100 ng/ml) overnight and treated with nigericin (5 μM) or MSU (150 μg/ml). Cells and supernatants were harvested at different time points as indicated and analysed for (D) expression and activation of the proteins as indicated by Western blot and (E) expression of Nrf2 and Nrf2 target genes by qRT-PCR. (F) HPKs were transfected with specific siRNAs as indicated (scr: scrambled, c1: caspase-1, K1; Keap1), 2 d later irradiated with UVB or treated with nigericin (5 μM). Cells were harvested after 1 h or 5 h, and lysates were analysed for the expression of the indicated proteins by Western blot.

[7] = test system: Monosodium urate (MSU) crystal-induced peritonitis; assay: MSU crystal-induced peritonitis mouse model (neutrophils in peritoneal lavage); assay type: in vivo; settings: mice, oral gavage 20 mg/kg for six days, 6 h post 2 mg MSU crystals, vs control mice, n=7, FIG. 3E
Experimental: (§7) Monosodium urate (MSU) crystal-induced peritonitis is a mouse model of inflammation and gout, which is dependent on IL-1, IL-1R1, MyD88 and the NLRP3 inflammasome. […] The inventors chose a different way of administration and supplied mice with SFN or DMF by oral gavage to determine a potential anti-inflammatory activity of the Nrf2 activators in vivo (FIG. 3). […] The inventors analysed the cellular infiltrate in the peritoneum 6 h post injection of MSU crystals.
Mice were challenged with 2 mg of MSU crystals for 6 hours as previously described (Chen et a Olin Invest 2006. 116: 2262-2271).
Mice treated by gavage with (A, B, C) SFN (25 mg/kg) in PBS or (D, E, F) DMF (20 mg/kg) in H2O containing 0.08% methocel and 10% DMSO, vehicle-treated mice served as control. Regime for (A) SFN or (D) DMF treatment. Peritonitis was induced by peritoneal injection of 2 mg MSU crystals, (B, E) After 6 h the number of neutrophils of the peritoneal lavage was determined by flow cytornetry. […] Statistics: Student's t-test. (B, C) n≥3, (E, F) n=7. *P≤0.05; **P≤0.01

[8] = test system: Nrf2 target genes Gstp1, Nqo1 and Srxn1; assay: Nrf2 target gene expression in liver of treated mice (qRT-PCR); assay type: in vivo, mouse; settings: oral gavage 20 mg/kg, FIG. 3F
Experimental: as §7
qRT-PCR was performed with the LightCycler 480 SYBR Green Master or the FastStart Universal SYBR Green Master (both Roche, Rotkreuz, Switzerland) using total cellular RNA. Specific primer pairs (Supplementary Table 2) were designed to generate an approximately 150 bp fragment flanking an intron-exon border of the corresponding gene. […]
Mice treated by gavage with (A, B, C) SFN (25 mg/kg) in PBS or (D, E, F) DMF (20 mg/kg) in H2O containing 0.08% methocel and 10% DMSO, vehicle-treated mice served as control. […] Peritonitis was induced by peritoneal injection of 2 mg MSU crystals, (B, E) After 6 h the number of neutrophils of the peritoneal lavage was determined by flow cytornetry. (C, F) At the same time, the liver was isolated and analysed for the expression of the Nrf2 target genes Gstp1, Nqo1 and Srxn1 by qRT-PCR. […]

T1 sequence (Q96P20 whole entry): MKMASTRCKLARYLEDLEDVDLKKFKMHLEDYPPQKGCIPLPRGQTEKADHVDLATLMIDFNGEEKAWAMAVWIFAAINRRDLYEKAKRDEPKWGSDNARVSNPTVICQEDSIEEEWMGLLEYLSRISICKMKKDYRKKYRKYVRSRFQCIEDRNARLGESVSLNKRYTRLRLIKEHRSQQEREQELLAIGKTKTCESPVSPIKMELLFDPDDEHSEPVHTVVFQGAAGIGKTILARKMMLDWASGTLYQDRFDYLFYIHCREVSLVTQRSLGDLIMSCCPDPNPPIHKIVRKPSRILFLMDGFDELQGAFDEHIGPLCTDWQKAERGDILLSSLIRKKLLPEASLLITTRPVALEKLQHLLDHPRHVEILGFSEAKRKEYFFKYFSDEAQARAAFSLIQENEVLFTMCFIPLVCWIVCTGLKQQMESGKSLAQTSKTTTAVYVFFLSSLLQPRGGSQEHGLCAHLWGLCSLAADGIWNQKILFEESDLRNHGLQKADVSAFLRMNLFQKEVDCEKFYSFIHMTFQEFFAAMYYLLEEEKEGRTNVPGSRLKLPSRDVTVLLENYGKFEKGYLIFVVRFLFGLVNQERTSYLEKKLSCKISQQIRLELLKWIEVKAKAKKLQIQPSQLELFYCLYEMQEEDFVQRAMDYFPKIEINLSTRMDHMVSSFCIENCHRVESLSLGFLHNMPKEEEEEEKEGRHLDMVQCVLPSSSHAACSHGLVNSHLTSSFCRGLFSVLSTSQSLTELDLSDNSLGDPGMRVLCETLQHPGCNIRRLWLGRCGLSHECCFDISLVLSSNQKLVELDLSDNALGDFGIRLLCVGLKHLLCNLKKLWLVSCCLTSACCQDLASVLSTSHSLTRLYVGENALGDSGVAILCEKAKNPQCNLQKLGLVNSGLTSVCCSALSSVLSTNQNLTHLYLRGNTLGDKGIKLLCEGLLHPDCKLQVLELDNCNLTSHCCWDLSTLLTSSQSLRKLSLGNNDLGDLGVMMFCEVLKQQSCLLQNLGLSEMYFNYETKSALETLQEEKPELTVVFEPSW

With `CC(C)(C)c1cc(O)ccc1O` [tBHQ, tert-butylhydroquinone] the “expression of the other Nrf2 complex proteins Keap1, Cul3, and Rbx1” value (Nrf2 [1]; 10 μM) was “not affected”, the “stabilisation and nuclear accumulation of Nrf2 protein” value (Nrf2 [1]; 10 μM) was “fast and robust stabilisation and nuclear accumulation of Nrf2 protein” and the “expression of classical Nrf2 target genes” value ([2]; 10 μM) was “induction of classical Nrf2 target genes”. For the same compound, the “inflammasome activation (processed caspase-1, mature IL-1β and -18 in the supernatant)” value (NLRP3 inflammasome [3]) was “inhibited inflammasome activation in a dose-dependent manner” and the IL-1β secretion (NLRP3 inflammasome [4]; 10 μM 1 h before nigericin (5 μM)) was “inhibited IL-1β secretion”.

With `N.S=C(S)N1CCCC1` [PDTC] the “inflammasome activation-induced Nrf2 degradation” value (Nrf2 [5]; 500 μM for 10 min) was “blocked”.

With `CC(=O)OCOC(=O)CN(CC(=O)OCOC(C)=O)c1ccccc1OCCOc1ccccc1N(CC(=O)OCOC(C)=O)CC(=O)OCOC(C)=O` [BAPTA-AM] the “inflammasome activation-induced Nrf2 degradation” value (Nrf2 [5]; 12.5 μM for 10 min) was “blocked”.

In the case of `C[C@@H]1C[C@@H]([C@H](O)CC2CC(=O)NC(=O)C2)C(=O)[C@@H](C)C1` [cycloheximide], the protein synthesis (THP-1 cells) is reported as “blocks protein synthesis”.

`COC(=O)/C=C/C(=O)OC` [DMF, dimethyl fumarate] was tested, and the “expression of the other Nrf2 complex proteins Keap1, Cul3, and Rbx1” value (Nrf2 [1]; 50 μM) was “not affected”, the “stabilisation and nuclear accumulation of Nrf2 protein” value (Nrf2 [1]; 50 μM) was “fast and robust stabilisation and nuclear accumulation of Nrf2 protein” and the “expression of classical Nrf2 target genes” value ([2]; 50 μM) was “induction of classical Nrf2 target genes”. For the same compound, the “relative efficiency/potency of inflammasome inhibition between compounds” value (NLRP3 inflammasome [3]; UVB, same concentrations) was “less potent in inflammasome inhibition than SFN”, the “inflammasome activation (processed caspase-1, mature IL-1β and -18 in the supernatant)” value (NLRP3 inflammasome [3]) was “inhibited inflammasome activation in a dose-dependent manner” and the IL-1β secretion (NLRP3 inflammasome [6]) was “inhibited IL-1β secretion”. The IL-1β secretion (NLRP3 inflammasome [4]; 50 μM 1 h before nigericin (5 μM)) was “inhibited IL-1β secretion”, the “number of neutrophils in the peritoneum” value [7] was “significantly reduced” and the “expression of Nrf2 target genes in the liver” value [8] was “increased mRNA expression”.
